From ChEMBL document CHEMBL5696441 (Nat Chem Biol, 2011)

How the values were obtained:
[1] = target: Fibroblast growth factor receptor 3 (Homo sapiens) (UniProt P22607); test: Inhibition of FGFR3 (unknown origin) assessed as remaining activity at 1 uM by Kinome scan method relative to control
[2] = target: Serine/threonine-protein kinase LATS2 (Homo sapiens) (UniProt Q9NRM7); test: Inhibition of LATS2 (unknown origin) assessed as remaining activity at 1 uM by Kinome scan method relative to control
Chain of Serine/threonine-protein kinase LATS2 (Homo sapiens) (Q9NRM7 whole entry): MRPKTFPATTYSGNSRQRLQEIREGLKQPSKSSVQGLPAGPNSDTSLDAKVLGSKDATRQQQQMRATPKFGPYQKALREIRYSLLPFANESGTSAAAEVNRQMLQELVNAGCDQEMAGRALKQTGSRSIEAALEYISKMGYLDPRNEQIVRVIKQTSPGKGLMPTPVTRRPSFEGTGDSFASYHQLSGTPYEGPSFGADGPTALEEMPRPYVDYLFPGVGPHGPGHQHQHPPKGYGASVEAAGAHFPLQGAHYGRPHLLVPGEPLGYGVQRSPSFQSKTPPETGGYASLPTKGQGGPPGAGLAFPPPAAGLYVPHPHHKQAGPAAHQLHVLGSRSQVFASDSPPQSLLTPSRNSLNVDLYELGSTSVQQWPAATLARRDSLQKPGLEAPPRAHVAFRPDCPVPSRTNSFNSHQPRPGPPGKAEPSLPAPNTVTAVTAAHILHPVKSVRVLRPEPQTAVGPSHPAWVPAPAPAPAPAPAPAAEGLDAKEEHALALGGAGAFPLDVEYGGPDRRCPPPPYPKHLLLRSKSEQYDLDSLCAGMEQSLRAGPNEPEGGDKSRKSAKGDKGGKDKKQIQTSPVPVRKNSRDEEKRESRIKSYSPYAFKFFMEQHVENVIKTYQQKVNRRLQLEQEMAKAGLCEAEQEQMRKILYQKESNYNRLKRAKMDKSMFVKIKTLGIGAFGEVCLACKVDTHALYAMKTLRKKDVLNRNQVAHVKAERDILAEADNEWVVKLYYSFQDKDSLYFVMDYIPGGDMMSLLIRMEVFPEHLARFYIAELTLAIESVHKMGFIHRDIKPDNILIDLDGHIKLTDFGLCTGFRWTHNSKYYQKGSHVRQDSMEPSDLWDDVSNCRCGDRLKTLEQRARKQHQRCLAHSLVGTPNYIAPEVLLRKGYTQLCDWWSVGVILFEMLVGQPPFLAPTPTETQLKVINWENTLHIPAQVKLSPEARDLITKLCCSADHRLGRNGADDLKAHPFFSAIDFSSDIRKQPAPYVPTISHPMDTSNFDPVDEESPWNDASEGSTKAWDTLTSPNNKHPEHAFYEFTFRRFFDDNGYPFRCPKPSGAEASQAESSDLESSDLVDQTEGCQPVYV

[3] = target: T1, Testis-specific serine/threonine-protein kinase 1 (Homo sapiens) (UniProt Q9BXA7); test: Inhibition of TSSK1B (unknown origin) assessed as remaining activity at 1 uM by Kinome scan method relative to control
T1 sequence (whole entry): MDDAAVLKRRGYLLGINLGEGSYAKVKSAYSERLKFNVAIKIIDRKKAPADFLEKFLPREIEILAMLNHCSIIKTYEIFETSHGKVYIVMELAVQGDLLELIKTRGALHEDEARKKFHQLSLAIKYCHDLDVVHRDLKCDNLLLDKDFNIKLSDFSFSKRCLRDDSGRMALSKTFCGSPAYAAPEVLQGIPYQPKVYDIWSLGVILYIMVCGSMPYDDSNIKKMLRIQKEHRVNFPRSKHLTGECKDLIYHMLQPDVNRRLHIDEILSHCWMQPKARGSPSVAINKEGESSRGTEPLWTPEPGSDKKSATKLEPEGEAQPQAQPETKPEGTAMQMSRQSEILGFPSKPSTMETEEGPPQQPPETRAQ

[4] = target: Dual specificity mitogen-activated protein kinase kinase 3 (Homo sapiens) (UniProt P46734); test: Inhibition of MEK3 (unknown origin) assessed as remaining activity at 1 uM by Kinome scan method relative to control
Chain of Dual specificity mitogen-activated protein kinase kinase 3 (Homo sapiens) (P46734 whole entry): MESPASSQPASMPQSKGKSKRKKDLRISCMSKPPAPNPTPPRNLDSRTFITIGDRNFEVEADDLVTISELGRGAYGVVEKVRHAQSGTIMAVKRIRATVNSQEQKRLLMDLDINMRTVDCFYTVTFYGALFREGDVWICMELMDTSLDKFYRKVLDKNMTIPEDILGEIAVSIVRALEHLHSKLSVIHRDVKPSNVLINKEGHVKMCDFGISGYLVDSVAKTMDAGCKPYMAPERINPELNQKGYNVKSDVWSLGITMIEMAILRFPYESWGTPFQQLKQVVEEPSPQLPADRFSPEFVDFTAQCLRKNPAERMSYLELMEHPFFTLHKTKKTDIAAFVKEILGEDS

[5] = target: Mitogen-activated protein kinase kinase kinase 10 (Homo sapiens) (UniProt Q02779); test: Inhibition of MLK2 (unknown origin) assessed as remaining activity at 1 uM by Kinome scan method relative to control
Chain of Mitogen-activated protein kinase kinase kinase 10 (Homo sapiens) (Q02779 whole entry, looked up): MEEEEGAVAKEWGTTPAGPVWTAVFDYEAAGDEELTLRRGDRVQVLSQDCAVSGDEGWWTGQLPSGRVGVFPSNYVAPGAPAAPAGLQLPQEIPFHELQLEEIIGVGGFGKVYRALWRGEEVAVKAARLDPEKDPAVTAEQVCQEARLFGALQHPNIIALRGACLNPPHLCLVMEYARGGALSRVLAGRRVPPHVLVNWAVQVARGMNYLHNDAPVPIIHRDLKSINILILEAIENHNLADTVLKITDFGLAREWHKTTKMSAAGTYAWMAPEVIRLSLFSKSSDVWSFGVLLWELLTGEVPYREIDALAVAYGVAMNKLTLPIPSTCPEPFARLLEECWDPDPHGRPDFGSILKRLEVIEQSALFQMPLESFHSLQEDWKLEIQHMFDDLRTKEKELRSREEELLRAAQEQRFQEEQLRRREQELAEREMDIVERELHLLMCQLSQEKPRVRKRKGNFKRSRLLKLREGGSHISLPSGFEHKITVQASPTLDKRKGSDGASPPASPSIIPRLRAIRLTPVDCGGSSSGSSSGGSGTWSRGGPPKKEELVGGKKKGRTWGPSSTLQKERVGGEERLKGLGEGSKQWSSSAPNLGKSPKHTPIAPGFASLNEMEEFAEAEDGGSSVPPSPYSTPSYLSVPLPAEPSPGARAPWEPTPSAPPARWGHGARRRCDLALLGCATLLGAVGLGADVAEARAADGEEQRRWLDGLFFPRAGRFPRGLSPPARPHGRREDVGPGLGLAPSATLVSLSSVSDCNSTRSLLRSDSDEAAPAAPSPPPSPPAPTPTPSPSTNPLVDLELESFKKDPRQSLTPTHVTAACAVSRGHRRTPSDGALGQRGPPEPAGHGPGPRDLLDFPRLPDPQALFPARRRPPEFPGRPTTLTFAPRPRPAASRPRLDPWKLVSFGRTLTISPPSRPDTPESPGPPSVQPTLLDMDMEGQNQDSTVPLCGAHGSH

[6] = target: Wee1-like protein kinase (Homo sapiens) (UniProt P30291); test: Inhibition of WEE1 (unknown origin) assessed as remaining activity at 1 uM by Kinome scan method relative to control
Chain of Wee1-like protein kinase (Homo sapiens) (P30291 whole entry, looked up): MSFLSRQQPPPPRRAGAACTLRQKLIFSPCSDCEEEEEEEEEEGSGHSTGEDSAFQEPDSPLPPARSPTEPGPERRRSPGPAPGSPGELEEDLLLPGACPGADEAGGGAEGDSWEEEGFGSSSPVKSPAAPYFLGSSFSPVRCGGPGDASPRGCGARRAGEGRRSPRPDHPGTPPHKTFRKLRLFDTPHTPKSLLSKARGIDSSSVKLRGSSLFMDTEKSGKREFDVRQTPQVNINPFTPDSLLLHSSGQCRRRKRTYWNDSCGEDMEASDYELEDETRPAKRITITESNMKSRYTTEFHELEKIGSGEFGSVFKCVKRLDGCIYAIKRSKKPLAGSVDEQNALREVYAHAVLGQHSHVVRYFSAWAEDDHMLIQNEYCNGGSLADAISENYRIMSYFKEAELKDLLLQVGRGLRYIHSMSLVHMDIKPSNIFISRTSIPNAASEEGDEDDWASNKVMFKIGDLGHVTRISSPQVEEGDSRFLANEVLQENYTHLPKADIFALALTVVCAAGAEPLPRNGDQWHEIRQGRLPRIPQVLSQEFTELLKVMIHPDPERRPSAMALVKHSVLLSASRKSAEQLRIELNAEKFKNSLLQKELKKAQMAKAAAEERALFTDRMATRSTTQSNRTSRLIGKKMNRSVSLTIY

[7] = target: T2, Aurora kinase C (Homo sapiens) (UniProt Q9UQB9); test: Inhibition of AURKC (unknown origin) assessed as remaining activity at 1 uM by Kinome scan method relative to control
T2 sequence (whole entry): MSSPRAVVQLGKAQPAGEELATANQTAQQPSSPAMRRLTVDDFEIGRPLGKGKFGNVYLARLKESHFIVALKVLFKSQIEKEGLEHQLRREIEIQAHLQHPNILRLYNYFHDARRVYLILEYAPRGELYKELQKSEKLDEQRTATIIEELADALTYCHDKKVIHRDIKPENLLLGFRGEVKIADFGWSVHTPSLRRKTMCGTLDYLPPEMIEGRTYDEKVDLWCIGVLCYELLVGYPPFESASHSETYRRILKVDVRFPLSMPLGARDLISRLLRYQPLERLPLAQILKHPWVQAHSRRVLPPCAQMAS

[8] = target: T3, Serine/threonine-protein kinase DCLK2 (Homo sapiens) (UniProt Q8N568); test: Inhibition of DCAMKL2 (unknown origin) assessed as remaining activity at 1 uM by Kinome scan method relative to control
T3 sequence (whole entry): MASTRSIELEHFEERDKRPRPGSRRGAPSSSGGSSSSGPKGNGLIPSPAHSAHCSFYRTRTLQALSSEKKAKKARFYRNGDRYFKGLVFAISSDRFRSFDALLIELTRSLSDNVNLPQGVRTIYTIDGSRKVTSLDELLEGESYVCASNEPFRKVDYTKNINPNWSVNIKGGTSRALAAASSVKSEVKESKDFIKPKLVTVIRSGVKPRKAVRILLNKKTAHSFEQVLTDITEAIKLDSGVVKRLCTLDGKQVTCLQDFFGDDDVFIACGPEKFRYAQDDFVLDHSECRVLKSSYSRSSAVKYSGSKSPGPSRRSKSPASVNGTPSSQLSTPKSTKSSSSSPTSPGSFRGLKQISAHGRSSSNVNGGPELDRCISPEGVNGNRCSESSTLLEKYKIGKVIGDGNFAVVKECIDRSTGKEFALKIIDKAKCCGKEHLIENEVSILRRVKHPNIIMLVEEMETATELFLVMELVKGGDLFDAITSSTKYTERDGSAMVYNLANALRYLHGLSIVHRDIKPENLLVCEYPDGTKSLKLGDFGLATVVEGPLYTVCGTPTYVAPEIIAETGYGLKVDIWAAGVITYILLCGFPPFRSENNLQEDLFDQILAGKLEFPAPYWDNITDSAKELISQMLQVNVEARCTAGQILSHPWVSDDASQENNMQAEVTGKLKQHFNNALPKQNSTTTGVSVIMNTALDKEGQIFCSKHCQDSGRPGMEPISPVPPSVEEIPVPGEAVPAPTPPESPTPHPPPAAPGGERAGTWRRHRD

[9] = target: Serine/threonine-protein kinase PLK1 (Homo sapiens) (UniProt P53350); test: Inhibition of PLK1 (unknown origin) assessed as remaining activity at 1 uM by Kinome scan method relative to control
Chain of Serine/threonine-protein kinase PLK1 (Homo sapiens) (P53350 whole entry): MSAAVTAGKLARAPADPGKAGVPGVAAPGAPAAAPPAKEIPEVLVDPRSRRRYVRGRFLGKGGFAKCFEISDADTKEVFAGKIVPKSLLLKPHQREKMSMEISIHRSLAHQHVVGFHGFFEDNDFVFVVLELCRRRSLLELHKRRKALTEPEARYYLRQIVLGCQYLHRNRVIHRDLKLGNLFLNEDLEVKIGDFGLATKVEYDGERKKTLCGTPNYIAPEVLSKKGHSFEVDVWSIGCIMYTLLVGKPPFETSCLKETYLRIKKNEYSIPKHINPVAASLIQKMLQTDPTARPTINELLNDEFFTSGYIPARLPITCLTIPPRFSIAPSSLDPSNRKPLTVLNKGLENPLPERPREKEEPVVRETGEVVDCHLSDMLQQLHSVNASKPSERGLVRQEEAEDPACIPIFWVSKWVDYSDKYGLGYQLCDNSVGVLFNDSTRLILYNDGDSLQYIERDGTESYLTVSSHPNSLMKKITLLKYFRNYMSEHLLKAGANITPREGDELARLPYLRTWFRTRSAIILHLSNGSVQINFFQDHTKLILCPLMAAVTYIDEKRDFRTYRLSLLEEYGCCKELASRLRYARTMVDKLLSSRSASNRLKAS

[10] = target: Serine/threonine-protein kinase PLK3 (Homo sapiens) (UniProt Q9H4B4); test: Inhibition of PLK3 (unknown origin) assessed as remaining activity at 1 uM by Kinome scan method relative to control
Chain of Serine/threonine-protein kinase PLK3 (Homo sapiens) (Q9H4B4 whole entry, looked up): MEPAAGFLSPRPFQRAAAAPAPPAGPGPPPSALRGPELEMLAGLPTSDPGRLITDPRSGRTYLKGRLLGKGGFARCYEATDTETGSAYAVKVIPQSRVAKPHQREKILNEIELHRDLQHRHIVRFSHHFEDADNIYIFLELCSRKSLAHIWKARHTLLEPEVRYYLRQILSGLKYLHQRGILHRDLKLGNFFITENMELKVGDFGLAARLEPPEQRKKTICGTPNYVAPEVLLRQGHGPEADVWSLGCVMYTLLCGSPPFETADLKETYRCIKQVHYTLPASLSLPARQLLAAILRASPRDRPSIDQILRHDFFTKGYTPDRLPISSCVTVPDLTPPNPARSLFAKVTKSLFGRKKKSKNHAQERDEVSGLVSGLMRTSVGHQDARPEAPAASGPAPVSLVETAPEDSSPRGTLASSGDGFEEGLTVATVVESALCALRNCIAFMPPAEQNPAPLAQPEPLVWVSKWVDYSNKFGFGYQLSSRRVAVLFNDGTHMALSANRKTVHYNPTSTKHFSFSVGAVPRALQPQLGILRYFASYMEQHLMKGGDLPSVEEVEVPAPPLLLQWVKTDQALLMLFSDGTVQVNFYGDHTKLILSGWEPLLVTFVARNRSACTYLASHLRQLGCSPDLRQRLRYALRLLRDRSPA

[11] = target: T4, cGMP-dependent protein kinase 2 (Homo sapiens) (UniProt Q13237); test: Inhibition of PRKG2 (unknown origin) assessed as remaining activity at 1 uM by Kinome scan method relative to control
T4 sequence (whole entry): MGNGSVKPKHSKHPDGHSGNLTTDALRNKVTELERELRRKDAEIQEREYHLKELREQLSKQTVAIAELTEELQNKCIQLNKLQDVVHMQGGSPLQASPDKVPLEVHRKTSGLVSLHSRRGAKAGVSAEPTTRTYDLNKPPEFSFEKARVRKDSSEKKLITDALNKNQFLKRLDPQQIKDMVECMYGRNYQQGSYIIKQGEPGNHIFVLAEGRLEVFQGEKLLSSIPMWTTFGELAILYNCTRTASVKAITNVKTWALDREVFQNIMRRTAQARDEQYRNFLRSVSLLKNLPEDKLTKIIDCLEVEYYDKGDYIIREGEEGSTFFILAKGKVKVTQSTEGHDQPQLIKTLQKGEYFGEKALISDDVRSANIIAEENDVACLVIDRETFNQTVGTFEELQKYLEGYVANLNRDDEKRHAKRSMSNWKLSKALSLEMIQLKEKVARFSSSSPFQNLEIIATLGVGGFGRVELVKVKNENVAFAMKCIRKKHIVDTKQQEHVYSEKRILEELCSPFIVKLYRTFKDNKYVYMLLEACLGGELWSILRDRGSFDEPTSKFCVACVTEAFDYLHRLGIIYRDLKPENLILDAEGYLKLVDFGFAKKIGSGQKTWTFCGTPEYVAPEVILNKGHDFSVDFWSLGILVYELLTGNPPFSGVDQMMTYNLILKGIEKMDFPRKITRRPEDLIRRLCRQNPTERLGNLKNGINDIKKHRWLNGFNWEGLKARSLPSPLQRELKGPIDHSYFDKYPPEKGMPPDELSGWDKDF

Chain of Fibroblast growth factor receptor 3 (Homo sapiens) (P22607 23-806 limits assumed): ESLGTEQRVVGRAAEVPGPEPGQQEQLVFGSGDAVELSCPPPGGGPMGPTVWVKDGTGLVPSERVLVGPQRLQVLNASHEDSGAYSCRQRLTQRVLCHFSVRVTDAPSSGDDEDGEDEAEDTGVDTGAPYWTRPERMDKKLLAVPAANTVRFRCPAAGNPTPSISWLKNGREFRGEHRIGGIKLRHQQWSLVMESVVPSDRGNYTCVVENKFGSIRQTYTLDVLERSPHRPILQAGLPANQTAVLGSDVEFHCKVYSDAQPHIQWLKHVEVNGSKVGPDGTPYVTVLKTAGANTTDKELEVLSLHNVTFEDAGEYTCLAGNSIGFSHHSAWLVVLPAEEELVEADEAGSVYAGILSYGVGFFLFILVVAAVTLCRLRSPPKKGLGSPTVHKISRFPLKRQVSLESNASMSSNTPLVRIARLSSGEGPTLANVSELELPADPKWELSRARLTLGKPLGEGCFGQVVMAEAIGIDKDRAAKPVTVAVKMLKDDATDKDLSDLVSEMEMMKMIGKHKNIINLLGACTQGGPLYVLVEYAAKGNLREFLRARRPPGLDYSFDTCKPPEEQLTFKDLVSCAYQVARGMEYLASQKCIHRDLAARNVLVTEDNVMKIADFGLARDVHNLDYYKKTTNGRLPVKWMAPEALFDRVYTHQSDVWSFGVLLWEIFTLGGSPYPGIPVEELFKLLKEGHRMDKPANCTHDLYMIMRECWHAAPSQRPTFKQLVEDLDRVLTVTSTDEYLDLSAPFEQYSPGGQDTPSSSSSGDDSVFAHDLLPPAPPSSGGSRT

Question: Which Activity [1] does the source give for `Nc1ccccc1Nc1ccc2c(c1)CCc1ccccc1C2=O` here?
Answer: The Activity was 77%.

Question: And the Activity [2]?
Answer: The Activity was 77%.

Question: And the Activity [3]?
Answer: Its Activity is 95%.

Question: And the Activity [4]?
Answer: The Activity was 97%.

Question: What about the Activity [5] of the same compound?
Answer: Its Activity is 92%.

Question: What about the Activity [6] of the same compound?
Answer: The Activity was 98%.

Question: What about the Activity [7] of the same compound?
Answer: The Activity was 91%.

Question: What about the Activity [8] of the same compound?
Answer: Its Activity is 98%.

Question: And the Activity [9]?
Answer: The Activity was 93%.

Question: What about the Activity [10] of the same compound?
Answer: Its Activity is 97%.

Question: What about the Activity [11] of the same compound?
Answer: The Activity was 91%.

Question: Which results are given for `O=C1c2ccc(Nc3ccc(F)cc3F)cc2CCc2ccc(OC[C@H](O)CO)cc21` [Skepinone-L]?
Answer: Activity [1]: 95%; Activity [2]: 94%; Activity [3]: 84%; Activity [4]: 95%; Activity [5]: 85%; Activity [6]: 100%; Activity [7]: 90%; Activity [8]: 88%; Activity [9]: 88%; Activity [10]: 100%; Activity [11]: 100%
